These are literature values, as cited in patent publication US20030073837A1, “3-HETEROARYLIDENYL-2-INDOLINONE COMPOUNDS FOR MODULATING PROTEIN KINASE ACTIVITY AND FOR USE IN CANCER CHEMOTHERAPY” (priority 1998, published 2003).

Data set [1] relates to metastatic colorectal cancer. To be noted: single agent; cited from earlier work.
For data set [2] the following is noted: cited from earlier work.
Data set [3] relates to advanced metastatic colorectal cancer. Conditions: cited from earlier work.

As for `O=c1[nH]cc(F)c(=O)[nH]1` [fluorouracil, 5-fluoro-2,4 (1H,3H)-pyrimidinedione], in data set [1], the median survival result is “six” and the response rate result is listed as “about 15%”. The excreted in urine entry in data set [2] (in vivo) was “Less than 10%”. Further, the plasma levels result in data set [2] (within 2 hours, intravenous bolus 370 to 720 mg/m^2) is recorded as “below 1 μM”. In addition, in data set [3] (fluorouracil alone 500 mg/m^2), the median survival time is on record as 7.7 months. In addition, in data set [3] (fluorouracil alone 500 mg/m^2 daily for 5 days every 28-35 days), the response rate is recorded as 10%.
